{"source": "patent US11584743B2", "about": "“Indole derivatives as estrogen receptor degraders” (Arvinas Operations, Inc., priority 2016, dated 2023)", "assay": "Single dose subcutaneous pharmacokinetics in CD-1 mice", "type": "in vivo", "settings": "mouse, plasma, sc, 10 mg/kg single dose", "procedure": "Single Dose Subcutaneous Pharmacokinetics in CD-1 Mice The subcutaneous bioavailability was determined in the following study: three CD-1 mice were dosed by subcutaneous injection (10 mg/kg) and plasma was collected at the following hourly time points (0.25, 0.5, 1, 2, 4, 8, and 24 h). Plasma compound concentations were determined by HPLC."}
{"smiles": "Cc1ncsc1-c1ccc([C@H](C)NC(=O)[C@@H]2C[C@@H](O)CN2C(=O)[C@@H](NC(=O)COCCOCCOCCOc2ccc(Cn3c(-c4ccc(O)cc4)c(C)c4cc(O)ccc43)cc2)C(C)(C)C)cc1", "note": "[Example #5, (2S,4R)-4-hydroxy-1-[(2S)-2-[1-(4-[[5-hydroxy-2-(4-hydroxyphenyl)-3-methyl-1H-indol-1-yl]methyl]phenyl)-1,4,7,10-tetraoxadodecan-12-amido]-3,3-dimethylbutanoyl]-N-[(1S)-1-[4-(4-methyl-1,3-thiazol-5-yl)phenyl]ethyl]pyrrolidine-2-carboxamide]", "values": [{"measurement": "bioavailability", "setting": "read-out: F % (subcutaneous bioavailability)", "value": 100, "unit": "%"}, {"measurement": "AUC(0-inf)", "value": 8280, "unit": "ng·h/mL"}, {"measurement": "Cmax", "value": 687, "unit": "ng/mL"}, {"measurement": "Tmax", "value": 4, "unit": "h"}, {"measurement": "half-life", "value": 12, "unit": "h"}]}
